Assay results from ChEMBL document CHEMBL4346717, “1,2,4-Triazole-quinoline/quinolone hybrids as potential anti-bacterial agents” (Eur J Med Chem, 2019).
≈ marks a conversion by molar mass, not a printed value.

Columns and labels:
Assay type in all cases: functional
Staphylococcus aureus [1] = assay: Antibacterial activity against Staphylococcus aureus after 3 to 7 days by cup diffusion method
Bacillus subtilis [2] = assay: Antibacterial activity against Bacillus subtilis after 3 to 7 days by cup diffusion method
[3] = test system: Aggregatibacter actinomycetemcomitans; assay: Antibacterial activity against Aggregatibacter actinomycetemcomitans ATCC 29524 assessed as zone of inhibition at 10 mg/ml after 3 to 7 days by cup diffusion method; conditions: read-out: IZ
[4] = test system: Aggregatibacter actinomycetemcomitans; assay: Antibacterial activity against Aggregatibacter actinomycetemcomitans ATCC 29524 after 3 to 7 days by cup diffusion method
Escherichia coli [5] = assay: Antibacterial activity against Escherichia coli assessed as zone of inhibition at 10 mg/ml after 3 to 7 days by cup diffusion method; conditions: read-out: IZ
Mycolicibacterium phlei [6] = assay: Antibacterial activity against Mycobacterium phlei clinical isolate after 3 to 7 days by cup diffusion method
Bacillus subtilis [7] = assay: Antibacterial activity against Bacillus subtilis assessed as zone of inhibition at 10 mg/ml after 3 to 7 days by cup diffusion method; conditions: read-out: IZ
Pseudomonas aeruginosa [8] = assay: Antibacterial activity against Pseudomonas aeruginosa assessed as zone of inhibition at 10 mg/ml after 3 to 7 days by cup diffusion method; conditions: read-out: IZ
Pseudomonas aeruginosa [9] = assay: Antibacterial activity against Pseudomonas aeruginosa after 3 to 7 days by cup diffusion method
Staphylococcus aureus [10] = assay: Antibacterial activity against Staphylococcus aureus assessed as zone of inhibition at 10 mg/ml after 3 to 7 days by cup diffusion method; conditions: read-out: IZ
Mycolicibacterium phlei [11] = assay: Antibacterial activity against Mycobacterium phlei clinical isolate assessed as zone of inhibition at 10 mg/ml after 3 to 7 days by cup diffusion method; conditions: read-out: IZ
Escherichia coli [12] = assay: Antibacterial activity against Escherichia coli after 3 to 7 days by cup diffusion method
Staphylococcus aureus [13] = assay: Antibacterial activity against Staphylococcus aureus
Escherichia coli [14] = assay: Antibacterial activity against Escherichia coli
[15] = Staphylococcus aureus, read-out: MIC
[16] = Bacillus subtilis, read-out: MIC
[17] = Aggregatibacter actinomycetemcomitans, ATCC 29524, read-out: MIC
[18] = Mycolicibacterium phlei, read-out: MIC
[19] = Pseudomonas aeruginosa, read-out: MIC
[20] = Escherichia coli, read-out: MIC

Compound | MIC (Staphylococcus aureus [1]) | MIC (Bacillus subtilis [2]) | zone of inhibition at 10000 µg/mL [3] [mm] | MIC [4] | zone of inhibition at 10000 µg/mL (Escherichia coli [5]) [mm] | MIC (Mycolicibacterium phlei [6]) | zone of inhibition at 10000 µg/mL (Bacillus subtilis [7]) [mm] | zone of inhibition at 10000 µg/mL (Pseudomonas aeruginosa [8]) [mm] | MIC (Pseudomonas aeruginosa [9]) | zone of inhibition at 10000 µg/mL (Staphylococcus aureus [10]) [mm] | zone of inhibition at 10000 µg/mL (Mycolicibacterium phlei [11]) [mm] | MIC (Escherichia coli [12]) | MIC (Staphylococcus aureus [13]) [µg/mL] | MIC (Escherichia coli [14]) [µg/mL] | MIC (Staphylococcus aureus [1]; [15]) [µM] | MIC (Bacillus subtilis [2]; [16]) [µM] | MIC [4, 17] [µM] | MIC (Mycolicibacterium phlei [6]; [18]) [µM] | MIC (Pseudomonas aeruginosa [9]; [19]) [µM] | MIC (Escherichia coli [12]; [20]) [µM]
CCn1cc(-c2nc(NC(=O)CCl)n[nH]2)c(=O)c2ccc(C)nc21 | >=0.031 - 32 ug ml-1 | >=0.031 - 32 ug ml-1 | 20 to 40 | >=0.031 - 32 ug ml-1 | 20 to 40 | >=0.031 - 32 ug ml-1 | 20 to 40 | 20 to 40 | >=0.031 - 32 ug ml-1 | 20 to 40 | 20 to 40 | >=0.031 - 32 ug ml-1 | – | – | – | – | – | – | – | –
CCn1cc(-c2nc(/N=C/c3ccc(Br)cc3)n[nH]2)c(=O)c2ccc(C)nc21 | >=0.031 - 32 ug ml-1 | >=0.031 - 32 ug ml-1 | 20 to 40 | >=0.031 - 32 ug ml-1 | 20 to 40 | >=0.031 - 32 ug ml-1 | 20 to 40 | 20 to 40 | >=0.031 - 32 ug ml-1 | 20 to 40 | 20 to 40 | >=0.031 - 32 ug ml-1 | – | – | – | – | – | – | – | –
CCn1cc(-c2nc(NC(=O)c3ccc(F)cc3)n[nH]2)c(=O)c2ccc(C)nc21 | >=0.031 - 32 ug ml-1 | >=0.031 - 32 ug ml-1 | 20 to 40 | >=0.031 - 32 ug ml-1 | 20 to 40 | >=0.031 - 32 ug ml-1 | 20 to 40 | 20 to 40 | >=0.031 - 32 ug ml-1 | 20 to 40 | 20 to 40 | >=0.031 - 32 ug ml-1 | – | – | – | – | – | – | – | –
O=C(O)c1cn(C2CC2)c2c(cc(F)c3nn(CN4CCCC4)c(=S)n32)c1=O | – | – | – | – | – | – | – | – | – | – | – | – | 0.125 to 8 (≈ 0.31 to 19.8 µM) | 0.125 to 8 (≈ 0.31 to 19.8 µM) | – | – | – | – | – | –
O=C(O)c1cn(C2CC2)c2c(cc(F)c3nn(CN4CCCCC4)c(=S)n32)c1=O | – | – | – | – | – | – | – | – | – | – | – | – | 0.125 to 8 (≈ 0.299 to 19.2 µM) | 0.125 to 8 (≈ 0.299 to 19.2 µM) | – | – | – | – | – | –
CCn1cc(-c2nc(NC(=O)c3ccc(F)cc3)n[nH]2)c(=O)c2cc(Br)c(C)nc21 | – | – | 20 to 40 | – | 20 to 40 | – | 20 to 40 | 20 to 40 | – | 20 to 40 | 20 to 40 | – | – | – | 3.68 to 6.3 (≈ 1.73 to 2.97 µg/mL) | 3.68 to 6.3 (≈ 1.73 to 2.97 µg/mL) | 3.68 to 6.3 (≈ 1.73 to 2.97 µg/mL) | 3.68 to 6.3 (≈ 1.73 to 2.97 µg/mL) | 3.68 to 6.3 (≈ 1.73 to 2.97 µg/mL) | 3.68 to 6.3 (≈ 1.73 to 2.97 µg/mL)
CCn1cc(-c2nc(/N=C/c3ccc(Cl)cc3)n[nH]2)c(=O)c2ccc(C)nc21 | >=0.031 - 32 ug ml-1 | >=0.031 - 32 ug ml-1 | 20 to 40 | >=0.031 - 32 ug ml-1 | 20 to 40 | >=0.031 - 32 ug ml-1 | 20 to 40 | 20 to 40 | >=0.031 - 32 ug ml-1 | 20 to 40 | 20 to 40 | >=0.031 - 32 ug ml-1 | – | – | – | – | – | – | – | –
CCn1cc(-c2nc(/N=C/c3ccc(OC)cc3)n[nH]2)c(=O)c2ccc(C)nc21 | >=0.031 - 32 ug ml-1 | >=0.031 - 32 ug ml-1 | 20 to 40 | >=0.031 - 32 ug ml-1 | 20 to 40 | >=0.031 - 32 ug ml-1 | 20 to 40 | 20 to 40 | >=0.031 - 32 ug ml-1 | 20 to 40 | 20 to 40 | >=0.031 - 32 ug ml-1 | – | – | – | – | – | – | – | –
CCn1cc(-c2nc(/N=C/c3ccc(F)cc3)n[nH]2)c(=O)c2ccc(C)nc21 | >=0.031 - 32 ug ml-1 | >=0.031 - 32 ug ml-1 | 20 to 40 | >=0.031 - 32 ug ml-1 | 20 to 40 | >=0.031 - 32 ug ml-1 | 20 to 40 | 20 to 40 | >=0.031 - 32 ug ml-1 | 20 to 40 | 20 to 40 | >=0.031 - 32 ug ml-1 | – | – | – | – | – | – | – | –
CCn1cc(-c2nc(NC(=O)CCl)n[nH]2)c(=O)c2cc(Br)c(C)nc21 | – | – | 20 to 40 | – | 20 to 40 | – | 20 to 40 | 20 to 40 | – | 20 to 40 | 20 to 40 | – | – | – | 3.68 to 6.3 (≈ 1.57 to 2.68 µg/mL) | 3.68 to 6.3 (≈ 1.57 to 2.68 µg/mL) | 3.68 to 6.3 (≈ 1.57 to 2.68 µg/mL) | 3.68 to 6.3 (≈ 1.57 to 2.68 µg/mL) | 3.68 to 6.3 (≈ 1.57 to 2.68 µg/mL) | 3.68 to 6.3 (≈ 1.57 to 2.68 µg/mL)
CCn1cc(-c2nc(/N=C/c3ccc(Br)cc3)n[nH]2)c(=O)c2cc(Br)c(C)nc21 | – | – | 20 to 40 | – | 20 to 40 | – | 20 to 40 | 20 to 40 | – | 20 to 40 | 20 to 40 | – | – | – | 3.68 to 6.3 (≈ 1.9 to 3.25 µg/mL) | 3.68 to 6.3 (≈ 1.9 to 3.25 µg/mL) | 3.68 to 6.3 (≈ 1.9 to 3.25 µg/mL) | 3.68 to 6.3 (≈ 1.9 to 3.25 µg/mL) | 3.68 to 6.3 (≈ 1.9 to 3.25 µg/mL) | 3.68 to 6.3 (≈ 1.9 to 3.25 µg/mL)
CCn1cc(-c2nc(/N=C/c3ccc(OC)cc3)n[nH]2)c(=O)c2cc(Br)c(C)nc21 | – | – | 20 to 40 | – | 20 to 40 | – | 20 to 40 | 20 to 40 | – | 20 to 40 | 20 to 40 | – | – | – | 3.68 to 6.3 (≈ 1.72 to 2.94 µg/mL) | 3.68 to 6.3 (≈ 1.72 to 2.94 µg/mL) | 3.68 to 6.3 (≈ 1.72 to 2.94 µg/mL) | 3.68 to 6.3 (≈ 1.72 to 2.94 µg/mL) | 3.68 to 6.3 (≈ 1.72 to 2.94 µg/mL) | 3.68 to 6.3 (≈ 1.72 to 2.94 µg/mL)
